Key:
[1] = tested on: cGMP in penile tissue; test: Penile tissue cGMP in STZ-diabetic rats; assay type: in vivo, rat (Sprague-Dawley); conditions: for cGMP content in penile tissue from diabetic rats after administration of sildenafil: then sildenafil 0.3 mg/kg i.v.
Method: (§1) Male Sprague-Dawley rats were used as a model for this study. Diabetes was induced by a single injection of streptozotocin (STZ, 60 mg/kg; i.p.) dissolved in 0.1 M citric acid/trisodic citrate buffer (pH 4-4.5) and was assessed by glycemia determination 72 h after induction. Animals were kept, with free access to food and water, for 8 weeks before experimental assays. Eight weeks after induction of diabetes, rats show altered in vivo vascular function (Angulo et al., Naunyn-Schmiedeberg's Arch Pharmacol, 358(5), 529-37, 1998) and reduced erectile responses (Angulo et al., J. Sex Med., 2, 341-346, 2005). Blood glucose concentration was determined each week and just before the experiment. Insulin levels were not determined. Plasma samples were collected, immediately frozen and stored at −80° C. until extraction for cyclic nucleotide assay. Samples were then precipitated in ethanol, centrifuged and the supernatant was dried under a nitrogen stream. Penile tissues were rapidly immersed in liquid nitrogen and were stored at −80° C. until extraction for cyclic nucleotide assay. […] After 10 days treatment, diabetic rats were anesthetized and erectile responses to cavernosal nerve electrical stimulation (CNES) were determined. After an equilibration period, the PDE-5 inhibitor sildenafil (0.3 mg/kg) or the vehicle (25% glycofurol) was intravenously administered. Forty five minutes later, erectile responses to CNES were again evaluated, and 5 min after CNES application, blood was collected for obtaining plasma and serum, and the penis was excised. Serum samples were immediately frozen until determinations of NOx and TBARS. Plasma and penile tissues were immediately frozen until determinations of cGMP.

[2] = tested on: nitrite plus nitrate (NOx) in rat serum; test: Serum nitrite plus nitrate (NOx) by Griess colorimetric method; assay type: in vivo; conditions: for effect on serum NOx concentration: i.v.: nebivolol 3 mg/kg, atenolol 3 mg/kg, vs vehicle
Method: Total NO derivatives (nitrites plus nitrates) were measured in pre-filtered (10,000 MW pore size) serum samples from the studied rats by the Griess colorimetric method, using a commercial kit for nitrite and nitrate determination from Cayman Chemical Co. (Ann Arbor, Mich.). Serum concentrations of NOx were determined 10 minutes after nebivolol administration.

[3] = tested on: cGMP in rat plasma; test: Plasma cGMP in STZ-diabetic rats; assay type: in vivo, rat (Sprague-Dawley)
Method: as §1

[4] = tested on: diabetic rats; test: Erectile responses to cavernosal nerve electrical stimulation (CNES) in STZ-diabetic rats; assay type: in vivo, rat (Sprague-Dawley); conditions: for erectile responses after sildenafil compared with non diabetic rats treated with sildenafil: 10 days treatment, then sildenafil 0.3 mg/kg i.v.
Method: Male Sprague-Dawley rats were used as a model for this study. Diabetes was induced by a single injection of streptozotocin (STZ, 60 mg/kg; i.p.) dissolved in 0.1 M citric acid/trisodic citrate buffer (pH 4-4.5) and was assessed by glycemia determination 72 h after induction. Animals were kept, with free access to food and water, for 8 weeks before experimental assays. Eight weeks after induction of diabetes, rats show reduced erectile responses (Angulo et al., Naunyn-Schmiedeberg's Arch Pharmacol, 358(5), 529-37, 1998; Angulo et al., J. Sex Med., 2, 341-346, 2005). Blood glucose concentration was determined each week and just before the experiment. Insulin levels were not determined. Rats were anesthetized with ketolar and diazepam. The surgical procedure consisted of dissection and isolation of the right cavernous nerve through an abdominal midline incision and exposure of penile crura through a transverse perineal incision. Intracavernosal pressure (ICP) measurements were permitted by insertion of a 23-gauge needle into the right crus. The right carotid artery and left external jugular vein were catheterized for constant blood pressure measurement and saline infusion, respectively. Electrostimulation was performed with a delicate platinum bipolar hook electrode connected to a stimulator and current amplifier. The parameters of electrical stimulation consisted of pulses with a duration of 0.3 ms and 1.5 mA of current intensity for 1 min. Frequency-response curves were performed by applying stimulation at 1, 3 and 10 Hz with a lapse of 3 min between each increase of frequency (Angulo et al., J. Sex Med., 2, 341-346, 2005). […] After this period of treatment, the diabetic rats were anesthetized and ICP responses to electrical stimulation were evaluated. After an equilibration period, the PDE5 inhibitor sildenafil (0.3 mg/kg) or the vehicle (25% glycofurol) was intravenously administered. Forty five minutes later, ICP responses were again determined

[5] = tested on: nitrite plus nitrate (NOx) in rat serum; test: Serum NOx in STZ-diabetic rats; assay type: in vivo, rat (Sprague-Dawley); conditions: for effect on NOx content in sera from diabetic rats: 3 and 10 mg/kg/day s.c. for 10 days
Method: as §1, with “determined. Total NO derivatives (nitrites plus nitrates) were measured in pre-filtered (10,000 MW pore size) serum” for “determined. Plasma”, “samples from the studied rats by the Griess colorimetric method, using a commercial kit for nitrite” for “samples were collected, immediately frozen”, “and nitrate determination from Cayman Chemical Co. (Ann Arbor, Mich.). See […] et al., Methods Enzymol., 268, 142-151, 1996.” for “and stored at −80° C. until extraction for cyclic nucleotide assay. Samples were then precipitated in ethanol, centrifuged and the supernatant was dried under a nitrogen stream. Penile tissues were rapidly immersed in liquid nitrogen and were stored at −80° C. until extraction for cyclic nucleotide assay.”

[6] = tested on: human corpus cavernosum (HCC) strips; test: Relaxation of human corpus cavernosum strips contracted with U46619; assay type: cell-based; conditions: for relaxation of HCC strips by cumulative addition: U46619 1-3 nM, nebivolol 1 nM to 0.1 mM; for relaxation of HCC strips by cumulative addition / effect on sildenafil-induced relaxation of HCC strips: sildenafil 1 nm to 10 μM; for effect on acetylcholine-induced endothelium-dependent relaxation of HCC strips: metoprolol 1 μM, nebivolol 0.3 μM; for effect on acetylcholine-induced endothelium-dependent relaxation of HCC strips / effect on sildenafil-induced relaxation of HCC strips: atenolol 1 μM; for effect on sildenafil-induced relaxation of HCC strips: nebivolol at 1 and 10 μM
Method: Specimens of human corpus cavernosum were obtained from organ donors and from impotent men at the time of penile prosthesis implantation. Tissues were placed in ice-cold M-400 solution (pH 7.4; 400 mOsm/kg, composition in w/v: 4.19% manitol, 0.2% KH2PO4, 0.97% K2HPO4.3H2O, 0.11% KCl and 0.08% NaHCO3) at the time of removal and transported to the laboratory for utilization within 16 h. Strips of human corpus cavemosum were mounted on force transducers in 8 ml organ baths (37° C.) containing physiological salt solution (PSS) continuously bubbled with 95% O2/5% CO2 mixture to maintain a pH of 7.4. Strips were contracted with the thromboxane receptor agonist U46619 (1-3 nM) and relaxation responses were evaluated by cumulative additions of compounds to the chambers.

[7] = 3 mg/kg/day s.c. for 10 days, sildenafil 0.3 mg/kg i.v.
[8] = 10 mg/kg/day s.c. for 10 days, sildenafil 0.3 mg/kg i.v., atenolol: measured as AUC of ICP

SMILES	cGMP content in penile tissue from diabetic rats after administration of sildenafil ([1]; 3 and 10 mg/kg/day for 10 days)	effect on serum NOx concentration ([2]; sildenafil 0.3 mg/kg)	potentiation by sildenafil of erectile responses after 10 days treatment [4, 7]	potentiation by sildenafil of erectile responses after 10 days treatment [4, 8]	erectile responses after sildenafil compared with non diabetic rats treated with sildenafil [4]	effect on NOx content in sera from diabetic rats [5]	relaxation of HCC strips by cumulative addition [6]	effect on acetylcholine-induced endothelium-dependent relaxation of HCC strips [6]	effect on sildenafil-induced relaxation of HCC strips [6]	further results
OC(CNCC(O)C1CCc2cc(F)ccc2O1)C1CCc2cc(F)ccc2O1 (racemic) [nebivolol, α,α′-iminobis(methylene)bis[6-fluoro-2-chromanmethanol]]	significantly higher than those obtained in diabetic rats treated with vehicle	significantly higher than after vehicle	No significant potentiation	No significant potentiation	not significant differences	significantly increased	modest relaxant effect	not significantly modified	significantly potentiated	effect on cGMP content in penile tissue from diabetic rats ([1]; 3 and 10 mg/kg/day for 10 days): statistically significant increase; increase of the concentration of NOx in serum compared to the vehicle ([2]; 3 mg/kg i.v.): three-fold increase; concentration of NOx in serum ([2]; 3 mg/kg i.v., 10 minutes after administration, vehicle 4.9±0.4, p<0.05): 15.4 ± 2.8 µM; effect on plasma cGMP content in diabetic rats ([3]; 3 and 10 mg/kg/day for 10 days): did not result in significant modifications; influence on the effects of sildenafil on plasma cGMP content in diabetic rats ([3]; 3 and 10 mg/kg/day for 10 days, sildenafil 0.3 mg/kg i.v.): did not influence; erectile effect of 3 mg/kg/day dose compared with 10 mg/kg/day dose ([4]; 3 mg/kg/day for 10 days): equally as effective as the 10 mg/kg/day dose; effect on erectile responses in diabetic rats in the absence of the PDE5 inhibitor ([4]; 3 and 10 mg/kg/day for 10 days): significantly enhanced; erectile responses in treated diabetic rats compared with non diabetic rats ([4]; 3 and 10 mg/kg/day for 10 days, no PDE5 inhibitor): not significantly different from those achieved by non diabetic rats; NOx effect, comparison of doses ([5]; 3 vs 10 mg/kg/day): more marked with the 3 mg/kg/day dose; effect on acetylcholine-induced (endothelium-dependent) relaxation of HCC ([6]; pre-treatment with nebivolol 10 μM): potentiated
CC(C)NCC(O)COc1ccc(CC(N)=O)cc1 (stereo not drawn) [atenolol]	did not modify	did not significantly alter	did not reach statistical significance	reached statistical significance	significantly reduced erectile responses	did not affect	–	not significantly modified	not affected	effect of the higher dose on erectile function in diabetic rats ([4]; 10 mg/kg/day for 10 days): did not positively affect
CCCc1nn(C)c2c(=O)[nH]c(-c3cc(S(=O)(=O)N4CCN(C)CC4)ccc3OCC)nc12 [sildenafil]	–	did not alter NOx levels	–	–	–	–	concentration dependent relaxations	–	–	effect on cGMP levels in penile tissue from diabetic and non diabetic rats ([1]; sildenafil 0.3 mg/kg i.v.): produced an increase; effect on nebivolol-induced increment in serum NOx ([2]; nebivolol 3 mg/kg i.v., L-NAME 3 mg/kg, ODQ 1 mg/kg, propranolol 1 mg/kg, sildenafil 0.3 mg/kg): did not alter NOx levels or affect nebivolol-induced effects; effect on plasma cGMP levels in diabetic and non diabetic rats ([3]; sildenafil 0.3 mg/kg i.v.): marked increase; effect on erectile responses to CNES in diabetic rats ([4]; sildenafil 0.3 mg/kg i.v., vehicle-treated diabetic rats): potentiation of erectile responses; effect on serum NOx content in rats ([5]; sildenafil 0.3 mg/kg i.v.): did not modify; influence on the effects of nebivolol and atenolol on NOx content in sera from diabetic rats ([5]; sildenafil 0.3 mg/kg i.v.): not influenced
